This is an account of results in ChEMBL document CHEMBL4825726, “Structural insights in galectin-1-glycan recognition: Relevance of the glycosidic linkage and the N-acetylation pattern of sugar moieties” (Bioorg Med Chem, 2021).

Assay [1] has as its target T1, Galectin-1 (Homo sapiens, UniProt P09382). The experiment in a line: Binding affinity to human Gal-1 assessed as change in enthalpy by isothermal titration calorimetry.
Assay [2] addresses T1, Galectin-1. The assay can be described thus: Binding affinity to human Gal-1 assessed as Gibbs free energy change by isothermal titration calorimetry.
Assay [3] deals with T1, Galectin-1. The assay can be described thus: Binding affinity to human Gal-1 assessed as inhibition of Gal-1 binding to immobilized asialofetuin pretreated with Gal-1 for 2 hrs followed by incubation with asialofetuin for 2 hrs by competitive solid phase assay relative to lactose. To be noted: time 4.0 hrs.
Assay [4] has as its target T1, Galectin-1. The experiment in a line: Binding affinity to human Gal-1 assessed as inhibition of Gal-1 binding to immobilized asialofetuin pretreated with Gal-1 for 2 hrs followed by incubation with asialofetuin for 2 hrs by competitive solid phase assay.
In assay [5] the target is T1, Galectin-1. The assay can be described thus: Binding affinity to human Gal-1 assessed as change in entropy by isothermal titration calorimetry.
Assay [6] deals with T1, Galectin-1. The assay can be described thus: Binding affinity to human Gal-1 assessed as dissociation constant by isothermal titration calorimetry.

T1 sequence (P09382 whole entry): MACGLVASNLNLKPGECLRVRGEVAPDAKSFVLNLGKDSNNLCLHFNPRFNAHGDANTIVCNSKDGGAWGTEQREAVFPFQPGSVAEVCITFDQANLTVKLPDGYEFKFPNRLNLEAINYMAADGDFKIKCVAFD

Consider `CC(=O)N[C@H]1C(O)O[C@H](CO[C@@H]2O[C@H](CO)[C@H](O)[C@H](O)[C@H]2O)[C@@H](O)[C@@H]1O` (stereo partly specified), for which the deltaH in assay [1] is -4.28 kcal/mol. In addition, the deltaG in assay [2] is -4.49 kcal/mol. Besides, in assay [3], the Ratio is 0.36. The IC50 in assay [4] (read-out: IC50) was 13000 µM. Moreover, in assay [5], the -TdeltaS is -0.215 kcal/mol and the deltaS was 3 J/mol.K. In addition, the equilibrium dissociation constant (Kd) in assay [6] was 499 µM.

Consider `OC[C@H]1O[C@@H](O[C@H]2[C@H](O)[C@@H](O)C(O)O[C@@H]2CO)[C@H](O)[C@@H](O)[C@H]1O` (stereo partly specified), for which, in assay [1], the deltaH is -10.8 kcal/mol. In assay [5], the -TdeltaS was determined as 5.71 kcal/mol and the deltaS was -80.2 J/mol.K.

On to `CC(=O)N[C@H]1C(O)O[C@H](CO)[C@@H](O[C@@H]2O[C@H](CO)[C@H](O)[C@H](O)[C@H]2O)[C@@H]1O` (stereo partly specified), for which, in assay [1], the deltaH is -12 kcal/mol. Besides, in assay [2], the deltaG was -5.47 kcal/mol. Further, in assay [3], the Ratio stood at 2.37. In assay [4] (read-out: IC50), the IC50 was 1970 µM. In assay [5], the -TdeltaS amounted to 6.55 kcal/mol and the deltaS was -91.9 J/mol.K. Moreover, the Kd in assay [6] was found to be 96 µM.

`CC(=O)N[C@H]1[C@H](O[C@H]2[C@H](O)[C@@H](NC(C)=O)C(O)O[C@@H]2CO)O[C@H](CO[C@@H]2O[C@H](CO)[C@H](O)[C@H](O)[C@H]2O)[C@@H](O)[C@@H]1O` (stereo partly specified): the deltaH in assay [1] is -3.66 kcal/mol. For the same compound, in assay [2], the deltaG was -4.25 kcal/mol. For the same compound, the Ratio in assay [3] was 0.22. Moreover, the IC50 in assay [4] (read-out: IC50) was found to be 21200 µM. In assay [5], the -TdeltaS was -0.598 kcal/mol and the deltaS stood at 8.4 J/mol.K. In assay [6], the Kd worked out at 770 µM.

Take `CC(=O)N[C@H]1C(O)O[C@H](CO)[C@@H](O)[C@@H]1O[C@@H]1O[C@H](CO)[C@H](O)[C@H](O)[C@H]1O` (stereo partly specified): the deltaH in assay [1] is -11.4 kcal/mol. Moreover, the deltaG in assay [2] was -5.19 kcal/mol. Besides, the Ratio in assay [3] worked out at 2.37. In assay [4] (read-out: IC50), the half-inhibitory concentration (IC50) amounted to 2050 µM. In assay [5], the -TdeltaS was determined as 6.21 kcal/mol and the deltaS is -87.2 J/mol.K. In addition, the Kd in assay [6] turned out to be 161 µM.

For the compound `OC[C@H]1O[C@@H](OC[C@H]2OC(O)[C@H](O)[C@@H](O)[C@@H]2O)[C@H](O)[C@@H](O)[C@H]1O` (stereo partly specified), the deltaH in assay [1] is -1.79 kcal/mol. Besides, the deltaG in assay [2] is -3.92 kcal/mol. Further, the IC50 result in assay [4] was “Not Active”. In assay [5], the -TdeltaS is -2.13 kcal/mol. Also, the Kd in assay [6] is 1330 µM.
